These results are taken from patent US20230131025A1, “QUINOLYL PHOSPHINE OXIDE COMPOUND, AND COMPOSITION AND APPLICATION THEREOF” (Betta Pharmaceuticals Co., Ltd., priority 2020, published 2023).

The subject of series [1] is human epidermal cancer cells A431 carrying EGFR WT. Put plainly: Cell proliferation experiment (CellTiter Glo, 72 hours). Format: cell-based. Conditions: for IC50: Homo sapiens, A-431. An outline of the steps:
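Cells seeded at 2000 or 3000/well and exposed 72 h to 9-point 3-fold dilutions, top final 10000 nM or 1111 nM, 0.1% DMSO. Viability by CellTiter-Glo luminescence. Inhibition relative to cell and medium controls; IC50 by four-parameter nonlinear regression.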
For orientation: Cellular ATP, detected with luciferase, serves as a proxy for viable cell number.

The target of series [2] is Ba/F3 EGFR WT (Homo sapiens, UniProt P00533). Described as above. The note with it: for GI50: read-out: BaF3 EGFR WT IC50. Format: cell-based. In outline: (§1)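 Ba/F3 cells overexpressing EGFR Δ19del/T790M/C797S or EGFR WT were seeded at 2000 or 3000 cells/well and exposed 72 h to 9 compound concentrations (3-fold, top 10000 or 1111 nM final, 0.1% DMSO). CellTiter-Glo luminescence gave survival inhibition versus controls; IC50 from nonlinear fit.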

The target of series [3] is Ba/F3-Δ19del/T790M/C797S (Homo sapiens, UniProt P00533, T790M/C797S, cells depend on it, form not given). The description is as above. It counts as cell-based. Conditions: for GI50: read-out: Ba/F3/EGFR Δ19del/T790M/C797S IC50. In outline: as §1
Sequence of Ba/F3-Δ19del/T790M/C797S (P00533 with tags, fused parts or gaps DEL746-750/T790M/C797S, form open): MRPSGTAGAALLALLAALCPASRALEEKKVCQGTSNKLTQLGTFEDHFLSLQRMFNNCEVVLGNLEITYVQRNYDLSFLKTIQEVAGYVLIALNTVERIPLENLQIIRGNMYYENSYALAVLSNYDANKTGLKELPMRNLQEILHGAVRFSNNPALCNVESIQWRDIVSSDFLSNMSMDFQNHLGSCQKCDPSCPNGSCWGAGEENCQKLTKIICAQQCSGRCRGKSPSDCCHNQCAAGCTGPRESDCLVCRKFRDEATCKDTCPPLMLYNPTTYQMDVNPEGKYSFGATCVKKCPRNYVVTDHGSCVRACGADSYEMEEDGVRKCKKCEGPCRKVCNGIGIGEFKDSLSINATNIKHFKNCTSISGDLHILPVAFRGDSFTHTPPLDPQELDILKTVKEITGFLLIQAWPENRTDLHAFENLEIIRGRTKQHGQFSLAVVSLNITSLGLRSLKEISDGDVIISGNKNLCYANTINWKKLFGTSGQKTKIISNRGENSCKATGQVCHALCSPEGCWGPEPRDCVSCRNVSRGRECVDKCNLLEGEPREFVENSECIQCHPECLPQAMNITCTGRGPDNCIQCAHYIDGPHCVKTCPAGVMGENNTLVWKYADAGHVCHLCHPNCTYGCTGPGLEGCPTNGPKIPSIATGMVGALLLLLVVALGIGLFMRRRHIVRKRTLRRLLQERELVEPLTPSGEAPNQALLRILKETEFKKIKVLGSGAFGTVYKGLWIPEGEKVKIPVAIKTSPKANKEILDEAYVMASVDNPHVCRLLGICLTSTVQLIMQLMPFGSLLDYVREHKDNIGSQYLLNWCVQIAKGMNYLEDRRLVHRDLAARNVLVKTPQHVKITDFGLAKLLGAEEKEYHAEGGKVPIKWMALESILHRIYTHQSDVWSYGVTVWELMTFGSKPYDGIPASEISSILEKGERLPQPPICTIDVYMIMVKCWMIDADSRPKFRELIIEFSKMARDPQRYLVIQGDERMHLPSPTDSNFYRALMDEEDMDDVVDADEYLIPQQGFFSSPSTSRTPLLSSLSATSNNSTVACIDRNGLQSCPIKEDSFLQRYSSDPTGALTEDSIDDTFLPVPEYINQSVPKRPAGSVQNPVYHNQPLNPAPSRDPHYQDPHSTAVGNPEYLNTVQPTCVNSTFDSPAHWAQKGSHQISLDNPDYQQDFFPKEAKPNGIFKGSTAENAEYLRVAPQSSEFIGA
The nature of series [4]: In vivo efficacy data of Comparative example 1 cited from WO2019/015655A1, TGI and ED50 calculated. Conditions: nonlinear fitting of dosage vs TGI calculated from cited data, FIG. 1. The protocol: Moreover, the data of Comparative example 1 (in the patent WO2019/015655A1) was cited in Table 4, and the TGI of each administration group was calculated. Nonlinear fitting was performed according to the administrating dosage and the tumor growth inhibition rate TGI (%) corresponding to each dosage using GraphPad Prism 8. The fitting formula is as follows and its ED50 (half effective dose) was calculated: Y=Bottom+(Top-Bottom)/(1+10^((Log ED50−X)*HillSlope)).
TGI was calculated according to the administration dosage and tumor growth volume of Comparative example 1. Nonlinear fitting was performed on the administration dosage and corresponding TGI (%). […] It can be seen that the half effective dose of compound J-022, which is 10 mg/kg/day, is equivalent to that of Comparative example 1.

For series [5], the target named is IGF1R (Homo sapiens, UniProt P08069). The series is described as follows: Kinase inhibition assay (mobility shift). It counts as biochemical. An outline of the steps: (§2)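 Caliper mobility-shift read of substrate conversion after kinase-compound preincubation 10 min at room temperature, then ATP/substrate addition and reaction at room temperature. Ten-point 3-fold dilutions from 3,000 or 100 nM top; IC50 from variable-slope four-parameter fit of percent inhibition.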
Sequence of IGF1R (P08069 31-1367, species assumed): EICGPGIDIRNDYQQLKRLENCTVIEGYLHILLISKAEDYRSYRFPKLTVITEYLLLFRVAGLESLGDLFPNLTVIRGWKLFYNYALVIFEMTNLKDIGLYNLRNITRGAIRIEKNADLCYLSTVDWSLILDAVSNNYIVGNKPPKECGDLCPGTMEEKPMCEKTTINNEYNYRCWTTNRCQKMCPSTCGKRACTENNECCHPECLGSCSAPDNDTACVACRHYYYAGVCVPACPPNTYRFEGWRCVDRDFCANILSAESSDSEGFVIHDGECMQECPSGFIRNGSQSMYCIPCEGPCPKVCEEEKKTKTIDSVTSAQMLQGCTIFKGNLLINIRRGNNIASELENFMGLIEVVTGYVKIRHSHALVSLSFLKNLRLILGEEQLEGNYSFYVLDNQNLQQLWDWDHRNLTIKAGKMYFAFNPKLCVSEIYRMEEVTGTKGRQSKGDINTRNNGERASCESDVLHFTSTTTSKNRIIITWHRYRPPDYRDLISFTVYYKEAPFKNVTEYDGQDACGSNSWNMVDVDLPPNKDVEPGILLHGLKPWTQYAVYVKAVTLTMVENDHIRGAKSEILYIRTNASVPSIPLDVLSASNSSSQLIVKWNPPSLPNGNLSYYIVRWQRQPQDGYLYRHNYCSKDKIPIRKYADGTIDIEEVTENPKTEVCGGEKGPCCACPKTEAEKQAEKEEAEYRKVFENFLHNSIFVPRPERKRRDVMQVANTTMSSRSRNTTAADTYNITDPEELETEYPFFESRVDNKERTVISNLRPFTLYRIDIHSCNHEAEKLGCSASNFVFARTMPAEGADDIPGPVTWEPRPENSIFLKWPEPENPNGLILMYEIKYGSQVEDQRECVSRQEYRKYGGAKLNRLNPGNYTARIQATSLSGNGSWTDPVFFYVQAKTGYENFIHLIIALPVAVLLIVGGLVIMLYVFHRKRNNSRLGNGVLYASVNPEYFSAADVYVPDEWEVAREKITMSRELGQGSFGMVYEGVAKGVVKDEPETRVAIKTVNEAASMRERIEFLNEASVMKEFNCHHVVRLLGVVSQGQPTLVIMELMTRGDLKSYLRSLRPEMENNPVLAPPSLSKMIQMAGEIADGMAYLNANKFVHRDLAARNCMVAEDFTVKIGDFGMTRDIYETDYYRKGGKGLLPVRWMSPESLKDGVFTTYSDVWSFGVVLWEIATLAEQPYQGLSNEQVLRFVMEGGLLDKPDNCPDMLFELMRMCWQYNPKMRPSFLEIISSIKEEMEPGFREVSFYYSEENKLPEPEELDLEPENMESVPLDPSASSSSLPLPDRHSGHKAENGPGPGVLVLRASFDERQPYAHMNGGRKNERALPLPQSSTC

Series [6] concerns the target EGFR Δ19del/T790M/C797S (Homo sapiens, UniProt P00533, T790M/C797S, form not given). Put plainly: Kinase inhibition assay (mobility shift). It counts as biochemical. An outline of the steps: as §2
Series [7] deals with EGFR WT (Homo sapiens, UniProt P00533). Put plainly: Kinase inhibition assay (mobility shift). It counts as biochemical. In outline:
as §2

Series [8] in a line: In vivo safety experiment (body weight, tolerance). Conditions: for Mortality of mice / Body weight of mouse: 75 mg/kg/day oral QD; for Mortality of mice: 7 consecutive days, 5 mice.
Method: The safety evaluation of the drug was carried out in BALB/c nude mice. […] They were fed in an SPF environment, and each cage was individually ventilated (5 mice per cage). All cages, bedding and water were disinfected prior to use. Mice were purchased from Viton Lever and were allowed to acclimate in the laboratory. Mice were administered orally QD.

Molecules are shown by their SMILES.

Sequence of EGFR WT (P00533 25-1210): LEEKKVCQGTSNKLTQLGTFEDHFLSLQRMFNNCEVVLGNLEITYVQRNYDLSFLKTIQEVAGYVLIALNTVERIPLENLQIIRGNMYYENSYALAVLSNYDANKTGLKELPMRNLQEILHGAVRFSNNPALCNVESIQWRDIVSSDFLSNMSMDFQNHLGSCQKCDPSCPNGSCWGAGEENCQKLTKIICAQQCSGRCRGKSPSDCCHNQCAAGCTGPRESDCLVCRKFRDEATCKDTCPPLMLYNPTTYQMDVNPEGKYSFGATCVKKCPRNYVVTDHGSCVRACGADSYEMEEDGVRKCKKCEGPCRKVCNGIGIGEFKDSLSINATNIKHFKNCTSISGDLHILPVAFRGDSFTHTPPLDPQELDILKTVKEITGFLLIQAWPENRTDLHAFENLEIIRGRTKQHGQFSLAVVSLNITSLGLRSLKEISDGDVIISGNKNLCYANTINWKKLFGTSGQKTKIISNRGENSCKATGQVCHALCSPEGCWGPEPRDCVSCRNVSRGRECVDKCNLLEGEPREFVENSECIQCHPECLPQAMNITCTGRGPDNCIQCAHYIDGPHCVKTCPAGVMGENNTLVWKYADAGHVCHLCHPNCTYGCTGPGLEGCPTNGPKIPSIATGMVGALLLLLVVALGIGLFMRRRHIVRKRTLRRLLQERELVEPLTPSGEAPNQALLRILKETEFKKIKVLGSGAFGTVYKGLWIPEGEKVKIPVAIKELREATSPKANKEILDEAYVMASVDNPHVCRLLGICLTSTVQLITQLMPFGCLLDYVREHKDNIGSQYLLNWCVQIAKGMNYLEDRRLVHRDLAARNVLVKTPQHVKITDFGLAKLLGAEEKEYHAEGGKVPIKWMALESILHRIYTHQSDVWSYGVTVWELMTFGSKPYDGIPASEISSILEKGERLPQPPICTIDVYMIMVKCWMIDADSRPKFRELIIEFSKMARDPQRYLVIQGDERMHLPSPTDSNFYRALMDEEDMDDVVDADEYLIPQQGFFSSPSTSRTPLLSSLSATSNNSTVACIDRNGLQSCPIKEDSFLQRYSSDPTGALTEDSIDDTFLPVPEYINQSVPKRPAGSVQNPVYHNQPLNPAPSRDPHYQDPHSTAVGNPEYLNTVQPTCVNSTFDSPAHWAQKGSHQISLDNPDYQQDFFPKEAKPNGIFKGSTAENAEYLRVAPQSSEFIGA
Sequence of EGFR Δ19del/T790M/C797S (P00533 with tags, fused parts or gaps DEL746-750/T790M/C797S, form open): as the sequence (P00533 with tags, fused parts or gaps DEL746-750/T790M/C797S, form open) above

Take `CCc1cc(Nc2ncc(Br)c(Nc3ccc4nccnc4c3P(C)(C)=O)n2)c(OC)cc1N1CCC(N2CCN(C)CC2)CC1` [Comparable example 1, reference compound]: the “A431 IC50” value in series [1] was “certain inhibitory effect”. Further, in series [2], the “BaF3 EGFR WT IC50” value was “strong inhibitory effect” and the GI50 was 39.9 nM. Besides, in series [3], the “Ba/F3/EGFR Δ19del/T790M/C797S IC50” value is reported as “strong inhibitory effect” and the GI50 was 9 nM. Besides, the “half effective dose ED50 (dosage at TGI 50%)” value in series [4] is listed as 8.7 mg/kg/day. For the same molecule, in series [5], the IC50 was 9.5 nM and the “IGF1R IC50” value is “strong inhibitory activity”. Moreover, the “EGFR Δ19del/T790M/C797S IC50” value in series [6] is “strong inhibitory effect”. Further, in series [7], the “EGFR WT IC50” value was “strong inhibitory activity” and the IC50 amounted to 5.1 nM. Further, the Mortality of mice result in series [8] was “all the 5 mice died on the 6th day”. Moreover, the Mortality of mice result in series [8] (listed as Comparative example 1) is “all mice died of intolerance”. For the same molecule, the “Body weight of mouse” value in series [8] (2 days) is “began to decrease”. The “Body weight of mouse” value in series [8] (4 days) is reported as “decreased significantly”. For the same molecule, the “window from the effective dose to the intolerance dose” value in series [8] (effective dose = dose corresponding to 50% TGI) is listed as “less than 8.6 times”.

In the case of `CCc1cc(Nc2ncc(Br)c(Nc3ccc4nc(C5CC5)ccc4c3P(C)(C)=O)n2)c(C)cc1N1CCC(N2CCN(C)CC2)CC1` [Compound J-027, (6-((5-Bromo-2-((5-ethyl-2-methyl-4-(4-(4-methylpiperazin-1-yl)piperidin-1-yl)phenyl)amino)pyrimidin-4-yl)amino)-2-cyclopropylquinolin-5-yl)dimethylphosphine oxide], the IC50 in series [1] was found to be 9010 nM; in series [5], 61.6 nM; in series [6] it was 0.3 nM; in series [7], 11.1 nM. The GI50 in series [2] was found to be 52 nM; in series [3], 1.4 nM.

With `CCc1ccc2c(P(C)(C)=O)c(Nc3nc(Nc4cc(C)c(N5CCC(N6CCN(C)CC6)CC5)cc4OC)ncc3Br)ccc2n1` [Compound J-028, (6-((5-Bromo-2-((2-methoxy-5-methyl-4-(4-(4-methylpiperazin-1-yl)piperidin-1-yl)phenyl)amino)pyrimidin-4-yl)amino)-2-ethylquinolin-5-yl)dimethylphosphine oxide], the IC50 in series [1] turned out to be 842 nM; in series [5], 116 nM; in series [6], 0.14 nM; in series [7] it was 19 nM. Moreover, the GI50 in series [2] was 155 nM; in series [3], 20.8 nM.

`COc1cc(Nc2ncc(Br)c(Nc3ccc4nc(C5CC5)ccc4c3P(C)(C)=O)n2)cc(C)c1N1CCC(N2CCN(C)CC2)CC1` [Compound J-029, (6-((5-Bromo-2-((3-methoxy-5-methyl-4-(4-(4-methylpiperazin-1-yl)piperidin-1-yl)phenyl)amino)pyrimidin-4-yl)amino)-2-cyclopropylquinolin-5-yl)dimethylphosphine oxide]: the IC50 in series [1] was 204 nM; in series [5], 58.1 nM; in series [6], 0.22 nM; in series [7], 41.3 nM. Besides, the GI50 in series [2] was determined as 98.5 nM; in series [3], 12.1 nM.

Take `COc1cc(N2CCC(N3CCN(C)CC3)CC2)c(C)cc1Nc1ncc(Br)c(Nc2ccc3nc(C(C)C)ccc3c2P(C)(C)=O)n1` [Compound J-034, (6-((5-Bromo-2-((2-methoxy-5-methyl-4-(4-(4-methylpiperazin-1-yl)piperidin-1-yl)phenyl)amino)pyrimidin-4-yl)amino)-2-isopropylquinolin-5-yl)dimethylphosphine oxide]: the IC50 in series [1] was 440 nM; in series [5], 298 nM; in series [6], 0.12 nM; in series [7], 23 nM. In addition, the figures for the GI50 in series [2] and in series [3] were 189 nM and 5.8 nM, respectively.

Turning to `COc1cc(Nc2ncc(Br)c(Nc3ccc4nc(C5CC5)ccc4c3P(C)(C)=O)n2)c(C)cc1N1CCN(C2CCCC2)CC1` [Compound J-039, (6-((5-Bromo-2-((4-(4-cyclopentylpiperazin-1-yl)-5-methoxy-2-methylphenyl)amino)pyrimidin-4-yl)amino)-2-cyclopropylquinolin-5-yl)dimethylphosphine oxide], the IC50 in series [1] turned out to be 1110 nM; in series [5] it was 21.5 nM; in series [6] it was 0.5 nM; in series [7], 33.5 nM. The GI50 was found to be 256 nM in series [2] and 12 nM in series [3].

Turning to `COc1cc(N2CCC(N3CCN(C)CC3)CC2)c(C)cc1Nc1ncc(Br)c(Nc2ccc3ncccc3c2P(C)(C)=O)n1` [Compound J-041, (6-((5-Bromo-2-((2-methoxy-5-methyl-4-(4-(4-methylpiperazin-1-yl)piperidin-1-yl)phenyl)amino)pyrimidin-4-yl)amino)quinolin-5-yl)dimethylphosphine oxide], the IC50 in series [1] was determined as 228 nM; in series [5], 25 nM; in series [6] it was 0.2 nM; in series [7], 11.5 nM. The GI50 in series [2] was 354 nM; in series [3], 28.4 nM.

Turning to `CCCc1ccc2c(P(C)(C)=O)c(Nc3nc(Nc4cc(C)c(N5CCC(N6CCN(C)CC6)CC5)cc4OC)ncc3Br)ccc2n1` [Compound J-042, (6-((5-Bromo-2-((2-methoxy-5-methyl-4-(4-(4-methylpiperazin-1-yl)piperidin-1-yl)phenyl)amino)pyrimidin-4-yl)amino)-2-propylquinolin-5-yl)dimethylphosphine oxide], the IC50 in series [1] amounted to 373 nM; in series [5] it was 107 nM; in series [6], 0.3 nM; in series [7] it was 21.1 nM. Moreover, the GI50 was 296 nM in series [2] and 8.18 nM in series [3].

In general, IC50 refers to the concentration that gives 50% inhibition.
